The values that follow come from a melting point compilation (Tetko et al.).

The conditions of the series: a range is the spread between reports.

For the compound `CCN1CCNC(=O)C1=O`, the melting point fell in the range of 108 to 110 °C. Then `Clc1cc(Cl)cc(Cl)c1`, with 63.4 to 65 °C; and `CC(C)C(O)C(C)(C)CO` (stereo not drawn), with 51.5 to 52 °C. Turning to `CC(C)CCCC(C)C`, the melting point was -103 °C.

Compound `S=C=Nc1ccc(Cl)cc1` displayed a melting point of 45 to 46 °C.

As to `CCc1c(C)cccc1C`, the melting point was -16.2 to -16 °C. The compound `CCc1ccc(C)cc1` had a melting point of -62.3 to -62 °C.

As for `CCOC(=O)c1cc([N+](=O)[O-])cc([N+](=O)[O-])c1`, the melting point was 92 to 94 °C.

The compound `O=C(Cl)c1ccc(F)cc1` registered a melting point of 9 to 10 °C. Then `c1ccc(C(c2ccccc2)(c2ccccc2)c2ccccc2)cc1`, with 282 to 283 °C.

For the compound `CC(C)(CC(=O)O)CC(=O)O`, the melting point was 101 to 104 °C.

`Oc1ccc(F)cc1` gave a melting point of 44.5 to 48 °C. Then `CCN1CCOCC1`, with -64 to -63 °C. For the compound `Fc1ccccc1`, the melting point was -42.2 to -40 °C.

For the compound `Clc1nc(Cl)c(Cl)c(Cl)c1Cl`, the melting point is 125 to 126 °C. Then `CCOC(=O)CC(C)=O`, with -45 to -43 °C; and `Oc1c(F)cccc1F`, with 38 to 39.5 °C; and `CCCN(CCC)CCC`, with -94 to -93 °C. Then `CCC(C)(C)O`, with -12 to -8 °C. Then `CC1(C)CC(=O)CC(=O)C1`, with 148 °C; and `CCC1(C)CCCC1`, with -144 °C.

The compound `ClCCCCl` came in with a melting point of -100 to -99.5 °C.

In turn, `CCCCCCCCCCCCS` gave a melting point of -8 to -7 °C.

For `CCCCCCCCCC(=O)Cl`, the melting point was -35 to -34.5 °C. Then `CCCCCCCCCCCCI`, with -3 to 0.3 °C. Then `Cc1cc2ccccc2[nH]1`, with 58 to 61 °C. Then `BrCBr`, with -53 to -52 °C. As to `CN(C)C(=O)Nc1ccc(Cl)cc1`, the melting point was in the range of 170 to 174 °C.

For `Oc1ccc(O)c(-c2ccccc2)c1`, the melting point lay in the range of 101 to 102 °C. Then `O=[N+]([O-])c1cc(Cl)ccc1O`, with 87 to 89 °C. In turn, `O=c1cc(-c2ccccc2)oc2ccccc12` displayed a melting point of 97 to 100 °C. Then `ClCCCBr`, with -59 to -58.9 °C. `O=C(O)c1c(F)cccc1F` showed a melting point of 158 to 159 °C. The compound `COc1cc(Cl)ccc1O` gave a melting point of 16.5 to 17 °C. Then `CC1OC1C` (stereo not drawn), with -85 to -80 °C; and `O=[N+]([O-])c1cc(Cl)ccc1Cl`, with 55 to 56 °C; and `Clc1ccc(Cl)cc1`, with 52.1 to 55 °C. Then `Cc1ccc(-c2ccc(C)cc2)cc1`, with 120 to 121 °C. Then `COC(=O)c1ccc(Cl)c([N+](=O)[O-])c1`, with 80 to 83 °C. The compound `Fc1ccc(Br)cc1` registered a melting point of -17.4 to -16 °C. Then `O=C(CCl)CCl`, with 44 to 45 °C. Then `CN=C=S`, with 32 to 36 °C; and `CCOC(=O)c1ccc(OC)cc1`, with 7 to 8 °C; and `C=C`, with -169 °C. Then `Cc1cc(C)c(Br)cc1C`, with 71 to 73 °C; and `Oc1c(Cl)ccc(Cl)c1Cl`, with 56 to 58 °C; and `CCOCC`, with -116 °C.

With `CN(C)C(=O)Nc1ccc(Cl)c(Cl)c1`, the melting point lay in the range of 158 to 159 °C. Then `CCCCCCCCCC#N`, with -17.9 to -15 °C; and `Oc1cccc(O)c1`, with 110 to 111 °C. Then `CSC(C)C`, with -102 °C. Then `C#CC1(O)CCCC1`, with 25 to 27 °C; and `CCn1cc(C(=O)O)c(=O)c2ccc(C)nc21`, with 229 to 230 °C. Compound `NNC(=O)c1ccccc1[N+](=O)[O-]` registered a melting point of 121 to 124 °C. Then `ClC/C=C/CCl`, with 2 to 3.5 °C. Then `CC(C)c1ccc(O)cc1`, with 60 to 62.3 °C; and `CCCC(C)(C)C`, with -124 °C; and `C=C1CCC2CC1C2(C)C` (stereo not drawn), with -61.5 to -61 °C. Then `ClCc1ccccc1`, with -45 to -43 °C; and `CCCCCCCCC#N`, with -34.2 to -34 °C. Turning to `O=C(O)CI`, the melting point was in the range of 81 to 82.5 °C.

The compound `O=Cc1ccc(Oc2ccccc2)cc1` showed a melting point of 24.5 to 25 °C. Then `Cc1c(C)c(C)c(Br)c(C)c1C`, with 162 to 165 °C. Then `NCCCCCCN`, with 39 to 41.5 °C; and `CCCCCCCCCCCCCCCCCC`, with 28 to 28.2 °C; and `Oc1ccccc1C=Nc1ccccc1`, with 47.5 to 51 °C. Then `Cc1nc2ccccc2[nH]1`, with 176 °C; and `c1ccc2c(c1)c1ccccc1c1ccccc21`, with 196 to 199 °C. The compound `CCCC` displayed a melting point of -138 to -137 °C. In turn, `CCOc1ccc([N+](=O)[O-])cc1` showed a melting point of 58 to 60 °C. `COC(=O)C1C2CC3c4[nH]c5cc(OC)ccc5c4CCN3CC2CC(OC(=O)c2cc(OC)c(OC)c(OC)c2)C1OC` (stereo not drawn): the melting point was 264 to 265 °C. Then `Nc1cccc2ccccc12`, with 48 to 49.2 °C.

In turn, `CC1(C)C(=O)N(Cl)C(=O)N1Cl` showed a melting point of 132 to 135 °C. Then `CC(=O)Nc1ccc(Cl)cc1F`, with 155 to 157 °C; and `CC1(C)CC=CCC1`, with -74.4 to -74 °C. Then `Cc1c(N)cccc1[N+](=O)[O-]`, with 90 to 92 °C; and `Cc1ccnc2ccccc12`, with 9.5 to 10 °C. `C#CC(C)C` had a melting point of -90 to -89.7 °C. Then `Cn1ccnc1S`, with 146 to 147 °C; and `CC(NC(=O)OC(C)(C)C)C(=O)O` (stereo not drawn), with 79.5 to 82 °C. Then `Cc1cccc(C)c1O`, with 45.7 to 49 °C. Then `COc1cccc(C=O)c1O`, with 41 to 44.5 °C; and `CC(C)(C)c1cccc(C(C)(C)C)c1O`, with 36.5 to 39 °C. Take `CC(C)c1ccc(CO)cc1`: the melting point lay in the range of 27 to 28 °C. Take `C=CCCC=C`: the melting point is -141 °C. For the compound `O=C(O)/C=C/c1ccccc1[N+](=O)[O-]`, the melting point is 244 to 247 °C. `O=Cc1cccc(C(=O)O)c1`: the melting point lay within 174 to 175 °C. Then `Oc1c(Br)cc(Br)c2cccnc12`, with 196 to 201 °C.

Turning to `C=C(C)Cl`, the melting point is -138 to -137 °C.

The compound `CC12CCC(C(Br)C1=O)C2(C)C` (stereo not drawn) displayed a melting point of 76 to 77 °C. Then `FC(Br)(Br)Br`, with -74 to -73.6 °C; and `COc1ccc(OC)c(C)c1`, with 15 to 20 °C; and `Clc1ncccn1`, with 66 to 67 °C. Compound `OC(C(F)(F)F)C(F)(F)F` came in with a melting point of -4 to -3 °C. Then `CCCCCC(=O)OC(=O)CCCCC`, with -41 to -40 °C; and `Cc1cccc2c(C)cccc12`, with 80 to 82 °C. Then `c1cc(-c2ccncc2)ccn1`, with 111 to 113 °C. Then `CCc1cc(C(C)(C)C)c(O)c(C(C)(C)C)c1`, with 43 to 44 °C. Turning to `CC(C)C(C)(C)O`, the melting point was -14 to -10 °C. Then `Cc1cc(Br)ccc1O`, with 64 to 64.7 °C; and `Oc1cc(O)c(Cl)cc1Cl`, with 113 to 115 °C. Then `OCCCO`, with -27 to -26 °C; and `C=C(C)C#N`, with -36 to -35.8 °C; and `O=Cc1ccccc1C(=O)O`, with 97 to 99 °C. `COC(=O)c1cc(OC)c(OC)c(OC)c1` had a melting point of 83 to 85 °C. Compound `BrCCCCOc1ccccc1` had a melting point of 41 to 42 °C.

`CCOC(=O)CCl`: the melting point is -26 to -21 °C.

For the compound `CC1CC(C)C(C)C1` (stereo not drawn), the melting point was -133 to -131 °C. Then `Cc1cccc(C(=O)O)c1O`, with 165 to 166 °C; and `CCOC(=O)C#CC(=O)OCC`, with 1.5 to 2 °C; and `O=[N+]([O-])NC1=NCCN1Cc1ccc(Cl)nc1`, with 140 to 144 °C. Then `COC(=O)c1ccccc1OC(C)=O`, with 51.5 to 52 °C.

The compound `BrC1c2ccccc2-c2ccccc21` returned a melting point of 103 to 104 °C.

As for `N#CCc1ccccc1C(F)(F)F`, the melting point was 30 to 33 °C. As for `O=S1(=O)CCCO1`, the melting point fell in the range of 31.5 to 32 °C. Then `C#CC1(O)CCCCC1`, with 31.5 to 33 °C. Then `O=[N+]([O-])c1cccc(CCl)c1`, with 45 to 47 °C. In the case of `Oc1ccc(NCc2ccccc2)cc1`, the melting point lay within 84 to 88 °C. Then `O=C(O)Cc1ccc(Cl)cc1`, with 103 to 106 °C; and `c1ccc2c(c1)CCc1ccccc1N2`, with 106 to 107 °C; and `c1ccsc1`, with -39.4 to -38 °C. Then `O=[N+]([O-])c1ccc(C=NO)cc1`, with 128 to 130 °C; and `C=Cc1ccccc1Cl`, with -63.1 to -63 °C; and `N#CCc1cccc(Cl)c1`, with 11.5 to 12 °C. Then `BrCc1ccc2ccccc2c1`, with 53 to 56 °C; and `BrCCCOc1ccccc1`, with 10 to 10.7 °C; and `CCCCCCCCCCCCCCCC(=O)Cl`, with 11 to 12 °C. Compound `N#Cc1c(F)cccc1F` displayed a melting point of 30 to 31 °C. Then `C1OCOCO1`, with 60.2 to 61 °C. Then `C=CCCC(=O)O`, with -22.5 to -22 °C; and `C=COCC`, with -116 to -115 °C.

On to `CC1CCC(C)C1C` (stereo not drawn), for which the melting point is -116 to -112 °C. Then `N#CCCCCCCC#N`, with -3.5 to -3 °C. Then `C=C(CC)C(=O)c1ccc(OCC(=O)O)c(Cl)c1Cl`, with 121 to 122 °C; and `CCCCC(O)CCC` (stereo not drawn), with -41 to -40.7 °C. Then `CC(C)CNCC(C)C`, with -77 to -73.5 °C.

`O=C(Cl)c1ccc(Cl)cc1Cl` gave a melting point of 16.5 to 18 °C. For the compound `O=C(C=Cc1cccc([N+](=O)[O-])c1)c1ccccc1`, the melting point stood at 146 °C. Then `O=c1cccccc1O`, with 50.8 to 53 °C; and `O=[N+]([O-])c1cc([N+](=O)[O-])c2ccccc2c1`, with 147 to 148 °C; and `CCOC(=O)C(O)(c1ccc(Cl)cc1)c1ccc(Cl)cc1`, with 36 to 37 °C.

In the case of `CCc1ccc(CC)cc1`, the melting point is -43 to -42.8 °C. Then `CC(C)(C)OOC(=O)c1ccccc1`, with 7 to 8 °C.
